US10550097B2, “Selective 11-beta-hydroxysteroid dehydrogenase type 1 inhibitors” (DSM IP ASSETS B.V., priority 2015, dated 2020)
Marks after values point to notes of the source that are not given here.

Experiments:
11β-HSD1 [1] = target: T1, 11β-HSD1 (Homo sapiens, UniProt P28845); assay: Human keratinocytes assay: 11β-HSD1 activity (cortisone to cortisol); assay type: cell-based; conditions: 48 h
Procedure: Cell Culture: Primary human skin keratinocytes obtained from CelINTec advanced Cell Systems were maintained in CnT-PR medium at 37° C. in a humidified 5% CO2-air atmosphere. Cells were subcultured before reaching confluence.
Assessment of 11β-HSD1 activity: Human primary keratinocytes were pre-cultured in complete culture media (CnT-PR, CelINTec) to 90% of confluence. Subsequently cells were washed twice with PBS-buffer to remove remaining corticosteroids and media were exchanged to custom made hydrocortisone-free media.
Calculation: % remaining 11β-HSD1 activity=(cortisol-level with inhibitor/cortisol-level without inhibitor)*100%

[2] = tested on: Human skin from abdominal plastic surgery; assay: Ex vivo: total dermal collagen after cortisone and cortisone/inhibitor treatment; assay type: cell-based; conditions: day 6; for Dermal collagen: cortisone/inhibitor treatment, topical daily, untreated set to 100%
Procedure: Human skin from abdominal plastic surgery was used. The skin samples were cut in pieces of ˜8×3 mm (ø×thickness) and cultured up to day 6 in an air-liquid interface in a perforated ring of stainless steel in contact with a culture medium (modified Williams' E medium), while renewing the culture medium on day 3. Six skin specimens were used for each test sample. Each test sample (4 μl) was applied topically on top of each piece after cleaning of the surface with a cotton pad, which was subsequently covered with a 6 ø mm delivery membrane, this procedure was repeated daily. After 6 days skin sections were stained with Picrosirius Red histochemical staining, that dyes collagen fibers in purple-red. The papillary dermis was selected for the analysis. The different colors of the pictures were separated by using a deconvolution matrix. After deconvolution only pink-reddish images are used. Within these images the evaluation of dermal collagen was performed by estimating both color intensity and distribution with IMAGE J (NIH) analysis software. Two slides of each skin sample were processed by image acquisition and related analysis (i.e. 12 images for each treatment).

[3] = tested on: Human skin from abdominal plastic surgery; assay: Ex vivo: total dermal collagen III after UV-irradiation; assay type: cell-based; conditions: for Increase versus UV treatment (#2): day 6; for Dermal collagen III: daily UV 6 J/cm^2, day 6, non UV treated set to 100%
Procedure: Human skin from abdominal plastic surgery classified as “Intermediate” (ITA° angle=42°) was used. The skin samples were cut in pieces of approx. 8×3 mm (0×thickness) and cultured up to day 6 in an air-liquid interface in a perforated ring of stainless steel in contact with a culture medium (modified Williams' E medium, while renewing the culture medium on day 3. Six skin specimens were used for each test sample. Each test sample (4 μl) was topically applied on top of each piece after gentle cleaning of the surface with a cotton pad, which was subsequently covered with a 6 ø mm delivery membrane, this procedure was repeated daily. The samples were irradiated daily with 80% of the Biological effective dose for daylight (i.e. 6 J/cm^2) using an adopted BIO-SUN system (Vilber Lourmat). At day 6 twelve skin sections were immunostained with mouse monoclonal anti-collagen III antibody (Sigma cat #c7805). The papillary dermis was selected for the analysis. The evaluation was performed by estimating both color intensity and distribution with IMAGE J (NIH) analysis software. Two slides of each skin sample have been processed by image acquisition and related analysis (i.e. 12 images for each treatment).

[4] = Solubility in cosmetic oils from saturated mixtures (UPLC); assay type: physicochemical; conditions: 7 days at room temperature (22° C.); for Solubility in cosmetic oils: Cetiol B: Cetiol B (dibutyl adipate); for Solubility in cosmetic oils: DUB DIS: DUB DIS (diisopropyl sebacate); for Solubility in cosmetic oils: Finsolv EB: Finsolv EB (ethylhexyl benzoate)
Procedure: H2O+0.02% TFA (A phase) and MeCN+0.02% TFA (B phase) were used as eluents, with a flow of 0.5 mL/min.
The solubility of selected compounds was tested in the cosmetic oils Cetiol B (INCI name: dibutyl adipate from BASF Personal Care), DUB DIS (INCI name: diisopropyl sebacate from Stearinerie Dubois) and Finsolv EB ((INCI name: ethylhexyl benzoate from Innospec Performance Chemicals).
Samples of about 1 mg of the compounds to be tested were exactly weighted and dissolved in 90% MeCN(aq) to provide 0.1% (1000 ppm) w/v stock solutions. Aliquots of the stock solutions were diluted with 90% MeCN(aq) to provide 10, 100 and 250 ppm diluted solutions, which were tested by UPLC.
For each compound to be tested about 20 mg material were weighted in three microcentrifuge tubes and to each tube about 150 mg of one cosmetic oil were added, as reported in Table 5 below.
After mixing on a Vortex mixer for 5 min, the respective samples were mixed on a waving platform shaker (20 cycles/min) for 7 days at room temperature (22° C.). After that time, the tubes were centrifuged for 5 min at 12000 rpm, 10 μL samples of the supernatant were diluted to 1.00 mL with MeOH, 100 μL of these solutions were diluted to 1.00 mL with 90% MeCN(aq) and subsequently analyzed by UPLC. The compound concentration in each solution was calculated using the respective calibration curve. From the compound concentration in the diluted solutions the concentrations of the respective parent mixtures was calculated accordingly.

11β-HSD1 [5] = target: T1, 11β-HSD1; assay: 11β-HSD1 enzyme activity assay in cell lysates of transfected HEK-293 cells (HHH7 clone); assay type: biochemical; parameters: expressed in transfected cells; host or cells: HEK-293 (HHH7 clone), used as cell lysate; conditions: 200 nM cortisone, 450 μM NADPH, 10 min
Procedure: Stably transfected human embryonic kidney (HEK-293) cells expressing 11β-HSD1 and hexose-6-phosphate dehydrogenase (the so called HHH7 clone) were cultivated for 48 h in Dulbecco's modified Eagle medium (DMEM) containing 4.5 g/L glucose, 10% fetal bovine serum, 100 U/mL penicillin, 0.1 mg/mL streptomycin, 1×MEM nonessential amino acids, and 10 mM HEPES buffer, pH 7.4. The cells were then washed with phosphate-buffered saline, and centrifuged for 4 min at 150×g. After removal of the supernatants, cell pellets were snap frozen on dry ice and stored at −80° C. until further use.
Cell lysates were incubated for 10 min at 37° C. in TS2 buffer (100 mM NaCl, 1 mM EGTA, 1 mM EDTA, 1 mM MgCl2, 250 mM sucrose, 20 mM Tris-HCl, pH 7.4) in a final volume of 22.2 μL containing either solvent (0.1% DMSO) or the inhibitor at the respective concentration as indicated in Table 4 (see below).
The steroids were separated by TLC, using methanol-chloroform (1:9) as solvent, followed by scintillation counting and calculation of substrate concentration. Data were collected from four independent measurements (standard deviation<10%).

T1 sequence (P28845 whole entry): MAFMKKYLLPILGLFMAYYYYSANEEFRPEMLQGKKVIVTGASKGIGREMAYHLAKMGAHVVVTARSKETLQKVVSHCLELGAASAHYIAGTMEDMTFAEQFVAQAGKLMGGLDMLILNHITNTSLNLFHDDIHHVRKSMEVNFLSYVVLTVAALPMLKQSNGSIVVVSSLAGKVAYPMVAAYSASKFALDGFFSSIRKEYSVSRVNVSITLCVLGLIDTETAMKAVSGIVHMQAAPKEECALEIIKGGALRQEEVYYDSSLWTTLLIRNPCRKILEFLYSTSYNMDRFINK

| remaining activity at 0.001 µM (11β-HSD1 [1]) [%] | remaining activity at 0.00316 µM (11β-HSD1 [1]) [%] | remaining activity at 0.01 µM (11β-HSD1 [1]) [%] | remaining activity at 0.03162 µM (11β-HSD1 [1]) [%] | remaining activity at 0.1 µM (11β-HSD1 [1]) [%] | Solubility in cosmetic oils: Cetiol B [4] [%^b] | Solubility in cosmetic oils: DUB DIS [4] [%^b] | Solubility in cosmetic oils: Finsolv EB [4] [%^b] | 11β-HSD1 Remaining activity [% of control] (11β-HSD1 [5]; inhibitor 1 μM) | 11β-HSD1 Remaining activity [% of control] (11β-HSD1 [5]; inhibitor 100 nM) | SMILES | Dermal collagen ([2]; 10 μM in DMSO) [%] | Increase versus cortisone (#2) ([2]; 10 μM in DMSO) | Dermal collagen ([2]; 100 μM in DMSO) [%] | Increase versus cortisone (#2) ([2]; 100 μM in DMSO) | Dermal collagen ([2]; 200 μM in DMSO) [%] | Increase versus cortisone (#2) ([2]; 200 μM in DMSO) | Increase versus UV treatment (#2) ([3]; 10 μM in DMSO) | Dermal collagen III ([3]; 10 μM in DMSO) [%] | Increase versus UV treatment (#2) ([3]; 100 μM in DMSO) | Dermal collagen III ([3]; 100 μM in DMSO) [%] |
| --- | --- | --- | --- | --- | --- | --- | --- | --- | --- | --- | --- | --- | --- | --- | --- | --- | --- | --- | --- | --- |
| 83 | 73 | 52 | 28 | 10 | ≥ 10.6 | ≥ 10.2 | ≥ 10.3 |  |  | O=C(c1cccc(-c2ccccc2)c1)N1CCCCCC1 [IV-f, [1,1′-biphenyl]-3-yl(azepan-1-yl)methanone] | 103 | +34% | 103 | +34% | 93 | +21% | +6% | 85 | +33% | 106 |
| 74 | 45 | 22 | 8 | 2 |  |  |  |  |  | Cc1ccc(-c2cccc(C(=O)N3CCCCCC3)c2)cc1F [IV-a, azepan-1-yl(3′-fluoro-4′-methyl-[1,1′-biphenyl]-3-yl)methanone] | 96 | +25% | 97 | +26% | 86 | +12% | +13% | 90 | +21% | 97 |
|  |  |  |  |  |  |  |  | 2 % of control |  | Cc1ccc(-c2cccc(C(=O)N3CCC(C)CC3)c2)cc1 [II-f, (4′-methyl-[1,1′-biphenyl]-3-yl)(4-methylpiperidin-1-yl)methanone] |  |  |  |  |  |  |  |  |  |  |
|  |  |  |  |  |  |  |  |  | 31 % of control | Cc1ccc(-c2cccc(C(=O)N3CCCCCC3)c2)cn1 [IV-e, azepan-1-yl(3-(6-methylpyridin-3-yl)phenyl)methanone] | 103 | +34% | 101 | +31% | 96 | +25% |  |  |  |  |
|  |  |  |  |  |  |  |  | 3 % of control | 60 % of control | Cc1ccc(-c2cccc(C(=O)N3CC(C)OC(C)C3)c2)cc1 (stereo not drawn) [III-c, (2,6-dimethylmorpholino) (4′-methyl-[1,1′-biphenyl]-3-yl)methanone] |  |  |  |  |  |  |  |  |  |  |
|  |  |  |  |  | ≥ 13.2 | ≥ 10.6 | ≥ 10.2 |  |  | Cc1ccc(-c2cccc(C(=O)N3CCC(C)CC3)c2)cn1 [II-a, (4-methylpiperidin-1-yl)(3-(6-methylpyridin-3-yl)phenyl)methanone] | 94 | +22% | 108 | +40% | 114 | +48% | +5% | 84 | +43% | 114 |
|  |  |  |  |  |  |  |  |  | 45 % of control | Cc1ccc(-c2cccc(C(=O)N3CCC(C)CC3)c2)cc1F [II-d, (3′-fluoro-4′-methyl-[1,1′-biphenyl]-3-yl)(4-methylpiperidin-1-yl)methanone] |  |  |  |  |  |  |  |  |  |  |
